Data as given in publication PMC4171110, “BdcA, a Protein Important for Escherichia coli Biofilm Dispersal, Is a Short-Chain Dehydrogenase/Reductase that Binds Specifically to NADPH” (PLoS ONE, 2014).

Legend:
[1] = target: T1, BdcA (Escherichia coli, UniProt P39333); assay: differential scanning fluorimetry (SYPRO Orange); type: binding; settings: 20 mM HEPES pH 7.5; 8 µM protein, 160 µM ligand
T1 construct: full-length; N-terminal Thio6-His6 tag removed with TEV protease; expressed in E. coli BL21-Gold (DE3)
T1 sequence (P39333 1-237): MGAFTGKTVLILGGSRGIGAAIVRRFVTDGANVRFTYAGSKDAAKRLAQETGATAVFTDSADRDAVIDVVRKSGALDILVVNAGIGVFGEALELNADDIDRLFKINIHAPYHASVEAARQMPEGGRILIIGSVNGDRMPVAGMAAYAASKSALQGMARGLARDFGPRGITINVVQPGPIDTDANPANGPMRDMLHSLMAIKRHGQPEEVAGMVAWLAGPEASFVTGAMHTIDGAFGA
Excerpt: differential scanning fluorimetry (SYPRO Orange) on BdcA

[2] = target: T1, BdcA; assay: isothermal titration calorimetry; type: binding
Excerpt: isothermal titration calorimetry on BdcA

[3] = target: the molecule itself; assay: SEC; Superdex 75 26/60, 20 mM Tris pH 7.5, 100 mM NaCl, 0.5 mM TCEP; elution volume compared with MW standards (158, 44, 17 kDa)

NC(=O)c1ccc[n+]([C@@H]2O[C@H](COP(=O)(O)OP(=O)(O)OC[C@H]3O[C@@H](n4cnc5c(N)ncnc54)[C@H](OP(=O)(O)O)[C@@H]3O)[C@@H](O)[C@H]2O)c1 [NADP]
ΔTm (°C) [1]: 1.0 °C

NC(=O)C1=CN([C@@H]2O[C@H](COP(=O)(O)OP(=O)(O)OC[C@H]3O[C@@H](n4cnc5c(N)ncnc54)[C@H](OP(=O)(O)O)[C@@H]3O)[C@@H](O)[C@H]2O)C=CC1 [NADPH]
ΔTm (°C) [1]: 3.1 °C | Kd [2]: 25.9 ± 4.1 µM

B1: BdcA (enzyme, E. coli, UniProt P39333 1-237, looked up)
chain: T1 sequence (P39333 1-237)
notes: BdcA (YjgI), short-chain dehydrogenase/reductase of E. coli, full-length bdcA gene in the RP1B vector; monomer MW 24.9 kDa as printed; Tag removed with TEV protease; Homodimer in the crystal and in solution; also called YjgI; BcdA; source: E. coli BL21-Gold (DE3), purified (HisTrap, TEV cleavage, Ni-NTA, SEC); not shown: Thio6-His6, N-terminal, cleaved
stoichiometry N [3]: 2
